In data set [1] the test system is p16-3MR mice treated with paclitaxel. Nature of the data set: Voluntary exercise (wheel counts) after paclitaxel in p16-3MR mice. The class given is in vivo, mouse. The settings on record: ABT-263 100 mg/kg i.p. daily 7 days; ganciclovir 25 mg/kg i.p. daily 3 days. The procedure:
The capability of a senolytic agent, such as ABT-263, to reduce chemotherapy related side effects, such as fatigue, was examined in p16-3MR transgenic mice. In addition to doxorubicin, paclitaxel also induces cellular senescence when administered to animals. See Example 2 for a description of the p16-3MR transgenic mouse model.
In this experiment, paclitaxel was administered to groups of p16-3mr mice (n=4) three times, every two days. Two days after the third dose of paclitaxel, ganciclovir was administered daily for three days (days 1, 2, and 3) intraperitoneally at 25 mg/kg. ABT-263 (100 mg/kg) was administered intraperitoneally daily for seven days after paclitaxel administration. Two days after the last dose of ABT-263, all groups of animals were housed in metabolic cages (promethion, sable systems international, Las Vegas, NV) to monitor voluntary exercise as determined by wheel counts. Data were collected and analyzed two days later. Clearance of senescent cells by ABT-263 and ganciclovir restored approximately 70% of wheel count reduction caused by chemotherapy treatment.

Data set [2] has as its system LDLR-/-/3MR double transgenic mice fed a HFD. As to the kind of experiment: Atherosclerosis model, LDLR-/-/3MR double transgenic mice fed a HFD. The class given is in vivo, mouse. The settings on record: vs LDLR-/- HFD controls. The protocol: The study illustrated in FIG. 43B assessed the extent to which […] based clearance of senescent cells from LDLR^−/−/3MR double transgenic mice improves pre-existing atherogenic disease. LDLR^−/−/3MR double transgenic mice (10 weeks) and LDLR^−/− single transgenic mice (10 weeks) are fed a high fat diet beginning at Week 0 until Week 12. Gancyclovir is administered to both groups of mice (25 mg/kg intraperitoneally) from weeks 12-13 and weeks 14-15. At week 16, the level of plaque and the number of senescent cells in the plaques are determined.

The subject of data set [3] is doxorubicin-treated (Doxo) senescent foreskin fibroblasts (HCA2). Nature of the data set: Cell count survival assay, doxorubicin-induced senescent HCA2. The class given is cell-based. The settings on record: Sen(Doxo) HCA2; 9 days. The protocol:
(§1) Foreskin fibroblast cell lines HCA2 and BJ, lung fibroblast cell line IMR90, and mouse embryonic fibroblasts were seeded in six-well plates and induced to senesce with 10 Gy of ionizing radiation (IR) or a 24 hr treatment with doxorubicin (Doxo). Senescent phenotype was allowed to develop for at least 7 days, at which point a cell count was made to determine the baseline number of cells. Nutlin-3a treatment was then initiated for a period of at least 9 days. Media alone or media with drug as appropriate was refreshed at least every three days. At the end of the assay time period, cells are counted. Each condition was seeded in three plate wells and counted independently. Initial cell count serves as a control to determine the induction of senescence, as compared to the last day count without nutlin treatment. Initial non-senescent cell count serves as a proxy to determine Nutlin-3a toxicity.
(§2) Foreskin fibroblasts (HCA2) and aortic endothelial cells (Endo Aort) were treated with doxorubicin (250 nM) for one day (24 hours) to induce senescence (see FIG. 1). Eight days following doxorubicin treatment, Nutlin-3a treatment was initiated. HCA2 cells were exposed to Nutlin-3a for 9 days, and aortic endothelial cells were exposed to Nutlin-3a for 11 days. […] Percent survival was calculated as [cell count on the last day of Nutlin-3a treatment/initial cell count on first day of Nutlin-3a treatment].

For data set [4], the system named is IL-6 positive senescent IMR90 cells. Nature of the data set: IL-6 immunofluorescence in irradiated senescent IMR90 cells. The class given is cell-based, human. The procedure:
Primary human fibroblast (IMR90) cells were induced to senesce by applying 10 Gy of irradiation. Seven days after irradiation (Day 0), cells were treated with 10 μM Nutlin-3a or vehicle (DMSO) for nine days (Day 9). The drug or vehicle was refreshed every three days. Drug/vehicle was removed at Day 9 and the cells were cultured for an additional three days (Day 12). Cells were then fixed with 4% paraformaldehyde and stained by immunofluorescence with a specific anti-IL-6 antibody (R&D, AF-206-NA). Cells were counterstained with DAPI for nuclear visualization. The percent IL-6 positive cells is illustrated in FIG. 12A. IL-6 positive cells were determined in an unbiased manner using CellProfiler software. Three different cultures were assessed. Non-senescent cells had no detectable cells IL-6 production while senescent cells were about 8% positive at day 9 after vehicle (DMSO) treatment (16 days after irradiation). […] At day 12, 3 days after Nutlin-3a was removed and 19 days after irradiation, IL-6 positive cells in the vehicle control were about 9% and Nutlin3a treated cells were less than 1% positive for IL-6.

Data set [5] concerns non-senescent mouse embryonic fibroblasts (Non Sen MEFs). As to the kind of experiment: Cell count toxicity assay, non-senescent MEF. Type of data set: cell-based. The settings on record: 0, 2.5, 10 μM, 9 days. The protocol:
as §1
(§3) Non-senescent foreskin fibroblasts (HCA2), lung fibroblasts (IMR90), and mouse embryonic fibroblasts (MEF) were treated with varying concentrations (0, 2.5 μM, and 10 μM) of Nutlin-3a for a period of 9 days to assess Nutlin-3a toxicity. Cell counts were taken at the start (NS start) and end of Nutlin-3a treatment. The difference between counts of cells not treated with Nutlin-3a on day 9 (NS 0) and cell counts determined at day zero (NS start) reflects the cell growth over the indicated time period. […]

For data set [6], the system named is doxorubicin-treated (Doxo) senescent aortic endothelial cells (Endo Aort). As to the kind of experiment: Cell count survival assay, doxorubicin-induced senescent aortic endothelial cells. Type of data set: cell-based. The settings on record: Sen(Doxo) aortic endothelial cells; 11 days. The protocol:
as §1, §2

Data set [7] concerns senescent mouse embryonic fibroblasts (MEF). Nature of the data set: Cell count survival assay, irradiation-induced senescent MEF. The class given is cell-based. The settings on record: irradiated MEF; 0, 2.5, 10 μM for 9 days. The protocol:
as §1
(§4) Foreskin fibroblast cell lines HCA2 and BJ, lung fibroblast cell line IMR90, and mouse embryonic fibroblasts were exposed to 10 Gy of ionizing radiation (IR) to induce senescence. […] Percent survival was calculated as [cell count on day 9 of Nutlin-3a treatment/initial cell count on first day of Nutlin-3a treatment].

For data set [8], the system named is senescent lung fibroblasts (Sen(IR)IMR90). Nature of the data set: Cell count survival assay, irradiation-induced senescent IMR90. The class given is cell-based, human. The settings on record: 0, 2.5, 10 μM for 9 days. The protocol:
as §1, §4

In data set [9] the test system is non-senescent lung fibroblasts (Non Sen IMR90). As to the kind of experiment: Cell count toxicity assay, non-senescent IMR90. Type of data set: cell-based, human. The settings on record: 0, 2.5, 10 μM, 9 days. The procedure: as §1, §3

Regarding `Nc1nc(O)c2ncn(COC(CO)CO)c2n1` [ganciclovir], the “Restoration of wheel count reduction caused by chemotherapy” value in data set [1] is recorded as “approximately 70%”. The “% of the aorta covered with plaque” value in data set [2] (25 mg/kg i.p. weeks 12-13 and 14-15) is listed as “reduces the % of the aorta covered with plaque”. Further, the Plaque cross-sectional area result in data set [2] (25 mg/kg i.p.) is reported as “reduced the plaque cross-sectional area”.
Take `COc1ccc(C2=N[C@@H](c3ccc(Cl)cc3)[C@@H](c3ccc(Cl)cc3)N2C(=O)N2CCNC(=O)C2)c(OC(C)C)c1` [Nutlin-3a]: the Percent survival entry in [3] is “sensitive”; in [6] it was “sensitive”; in data set [7] it was “reduced cell survival”; in data set [8] it was “reduced cell survival”. Moreover, the “Percent IL-6 positive cells” value in [4] (10 μM, Day 9, vehicle about 8%) was “below 5%”; in data set [4] (Day 12, 3 days after drug removal, vehicle about 9%) it was “less than 1%”. For the same compound, the “Proliferation (percent growth)” value in data set [5] and in [9] was “reduces proliferation” each time. Further, the “Toxicity (cell number vs starting level)” value in data set [5] and in [9] was “non-toxic” each time.

These data come from patent publication US11980616B2, “Treating liver disease by selectively eliminating senescent cells” (Buck Institute for Research on Aging, priority 2014, dated 2024).
